# Assay results published in patent US20130171139A1, “NCAM-VASE AND NEURODEGENERATION” (priority 2010, published 2013).
# Assays:
# Assay type in all cases: cell-based
# [1] = test system: total NCAM; assay: Total NCAM staining of cultured cortical astrocytes; conditions: PND4 rat cortical astrocytes; 2 days; 1 mM dbcAMP or 50 ng/ml FGF-2
# Procedure: (§1) Expression of NCAM-VASE by astrocytes was also examined. Astrocytes (>90% GFAP-positive cells) were isolated from the cortices of PND4 rat and cultured for 2 days in the absence or presence of 1 mM dbcAMP or 50 ng/ml FGF-2 in DMEM/10% FBS. Treatment with dbcAMP or FGF is known to stimulate a reactive phenotype in astrocytes, such as is found in astrocytes in the glial scars that are characteristic of damaged CNS. The astrocytes were then fixed and costained for GFAP and NCAM-VASE (as shown in FIG. 4) or total NCAM (not shown).
# [2] = test system: NCAM-VASE; assay: NCAM-VASE staining of cultured cortical astrocytes; conditions: PND4 rat cortical astrocytes; 2 days; 1 mM dbcAMP or 50 ng/ml FGF-2
# Procedure: as §1
# [3] = test system: PND4 rat cerebellar granule neurons; assay: Neurite/axon outgrowth of cerebellar granule neurons cultured on 3T3 monolayers (control, NCAM or NCAM-VASE); conditions: FGF (0.1 ng/m) or forskolin added to culture medium
# Procedure: It has previously been shown that soluble NCAM-Fc stimulates axon outgrowth over control monolayers as effectively as if it were expressed in the monolayer (Meiri et al, J. Neurosci, 1998, 18, 10429-10437). […]
# […] Cerebellar granule neurons were cultured on control, NCAM-expressing (NCAM) or NCAM-VASE-expressing (VASE) monolayers in the absence of presence of soluble NCAM-Fc or NCAM-VASE-Fc (VASE-Fc).
Compound,total NCAM staining [1],NCAM-VASE staining [2],axon length ([3]; NCAM-VASE-expressing monolayers),axon outgrowth ([3]; control monolayers)
"FGF2: fibroblast growth factor, known to stimulate axon outgrowth from cerebellar granule neurons",large upregulation,large upregulation,do not extend longer axons,stimulate axon outgrowth
"CCCC(=O)Nc1ncnc2c1ncn2[C@@H]1O[C@@H]2COP(=O)(O)O[C@H]2[C@H]1OC(=O)CCC [dBcAMP, dbcAMP, reference compound]",large upregulation,large upregulation,–,–
